We go through 5 compounds from patent publication US8048877B2, “Guanidine derivatives and their medical use” (Neurosearch A/S, priority 2006, dated 2011).

One data set addresses T1, hSK3 channels (Homo sapiens, UniProt Q9UGI6).
T1 construct: expressed in transfected cells; host or cells: HEK293
As to the kind of experiment: whole-cell patch-clamp recording of SK3 current in HEK293 cells expressing hSK3 channels. In kind it is cell-based. The following applies: current at −75 mV, free Ca2+ 0.3-0.4 μM, room temperature, read-out: Kd value (concentration required for decreasing the baseline current to 50% of the initial current). How it is done:
The ionic current through small-conductance Ca^2+-activated K^+ channels (SK channels, subtype 3) was recorded using the whole-cell configuration of the patch-clamp technique.
HEK293 tissue culture cells expressing hSK3 channels were grown in DMEM (Dulbecco's Modified Eagle Medium) supplemented with 10% FCS (foetal calf serum) at 37° C. in 5% CO2. At 60-80% confluency, cells were harvested by trypsin treatment and seeded on cover slips.
Cells plated on coverslips were placed in a 15 μl perfusion chamber (flowrate ˜1 ml/min) mounted on an inverted microscope placed on a vibration-free table in a grounded Faraday cage. The experiments were performed at room temperature (20-22° C.). […] Data were stored directly on the hard-disk and analysed by IGOR software (Wavemetrics, Lake Oswega, Oreg., USA).
The whole-cell configuration of the patch-clamp technique was applied. […] Cell capacitance was electronically compensated and the resistance between the pipette and the cell interior (the series resistance, Rs) was measured and compensated for. […]
The intracellular (pipette) solution contained: 154 mM KCl, 10 mM HEPES, 10 mM EGTA. Concentrations of CaCl2 and MgCl2 needed to obtain the desired free concentrations of Ca^2+ (0.3-0.4 μM, Mg^2+ always 1 mM) were calculated by EqCal software (Cambridge, UK) and added. […]

SMILES strings stand for the structures. Where a name gives a salt, the structure may show the parent alone.

`N=C1N(Cc2ccc(F)c(F)c2)Cc2ccccc2N1Cc1ccc(F)c(F)c1` (as salt: salt) [Compound 4, 1,3-Bis-(3,4-difluorobenzyl)-3,4-dihydro-1H-quinazolin-2-ylideneamine] had a melting point of 215 to 218 °C.

`N=C1N(Cc2cc(F)c(F)cc2Br)Cc2ccccc2N1Cc1cc(F)c(F)cc1Br` (as salt: salt) [Compound 9, 1,3-Bis-(2-bromo-4,5-difluorobenzyl)-3,4-dihydro-1H-quinazolin-2-ylideneamine] returned a melting point of 220 to 224 °C.

In turn, `N=C1N(Cc2ccc(F)c(F)c2)[C@@H]2CCCC[C@H]2N1Cc1ccc(F)c(F)c1` (racemic) (as salt: salt) [Compound 5, (±)-trans-1,3-Bis-(3,4-difluoro-benzyl)octahydro-benzoimidazol-2-ylideneamine] gave a melting point of 238 to 240 °C.

In the case of `N=C1N(Cc2ccc(F)c(F)c2)CCCN1Cc1ccc(F)c(F)c1` [Compound 7, 1,3-Bis-(3,4-difluorobenzyl)tetrahydropyrimidin-2-ylideneamine], the Kd at hSK3 channels was below 1000 nM.

`COc1ccc(OC(F)(F)F)cc1CN1CCN(Cc2cc(OC(F)(F)F)ccc2OC)C1=N` [Compound 15, 1,3-Bis-(2-methoxy-5-trifluoromethoxybenzyl)imidazolidin-2-ylideneamine]: the Kd on hSK3 channels is below 1000 nM.
